The values that follow are results of earlier work, collected in US7060435B1, “Genotyping cytochrome expression” (Janssen Pharmaceutica, priority 1998, dated 2006).

This data set concerns the target CYP3A4 and CYP3A5 (Homo sapiens, UniProt P08684). As to conditions: samples containing only CYP3A4.

A value given as a limit tells only on which side of the number the result lay.

Sequence of CYP3A4 and CYP3A5 (P08684 2-503): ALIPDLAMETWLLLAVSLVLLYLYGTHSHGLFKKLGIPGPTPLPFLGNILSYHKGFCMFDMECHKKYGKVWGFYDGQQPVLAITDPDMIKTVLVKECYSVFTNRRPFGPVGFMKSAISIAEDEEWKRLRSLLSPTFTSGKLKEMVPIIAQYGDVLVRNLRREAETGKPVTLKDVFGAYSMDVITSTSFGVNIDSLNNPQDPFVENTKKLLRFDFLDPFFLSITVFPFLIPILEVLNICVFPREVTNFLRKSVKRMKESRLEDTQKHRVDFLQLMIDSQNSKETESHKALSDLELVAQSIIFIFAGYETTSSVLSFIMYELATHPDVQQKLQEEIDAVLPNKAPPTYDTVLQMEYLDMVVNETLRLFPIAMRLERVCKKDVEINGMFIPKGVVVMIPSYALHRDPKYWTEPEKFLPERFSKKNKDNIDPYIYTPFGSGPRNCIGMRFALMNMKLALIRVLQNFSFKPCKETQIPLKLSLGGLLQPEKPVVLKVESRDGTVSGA

Turning to `Cc1ncc2n1-c1ccc(Cl)cc1C(c1ccccc1F)=NC2` [midazolam], the 1-OHM/4-OHM ratio is on record as under 4.
